Data set [1] is described as follows: Microscopic observation (polarizing microscope). Type of data set: physicochemical. As to conditions: under the microscope. An excerpt:
The test sample was taken on a glass slide, spread homogeneously, and covered with a cover glass to prepare a temporary mounting slide.
A transflective polarizing microscope (VPV-900) was used. The specific procedures were as follows: adjust the brightness, fix the temporary mounting slide on the stage, align the light aperture with a low-power objective lens, and adjust the coarse focus screw until the field of view is clear. If the clarity is insufficient, use the fine focus screw for further adjustment or switch to a high-power objective lens for observation.
Bright spots can be observed in the middle of the sample in the field of view, which were crystalline structures.

The conditions of data set [2]: background statement; cited from earlier work.

Turning to `COC1=C(OC)C(=O)C(C/C=C(\C)CC/C=C(\C)CC/C=C(\C)CC/C=C(\C)CC/C=C(\C)CC/C=C(\C)CC/C=C(\C)CC/C=C(\C)CC/C=C(\C)CCC=C(C)C)=C(C)C1=O` [Coenzyme Q10, coenzyme Q10], the Microscopic structure entry was “irregular crystalline structures” in data set [1] (listed as coenzyme Q10 raw material) and “irregular crystal structure” in data set [1] (listed as raw material of coenzyme Q10). The “Antioxidant capacity relative to vitamin E” value in data set [2] is given as 50 times.

The record behind these values is patent US20260355112A1, “HIGH-STABILITY LIPOSOME, PREPARATION METHOD THEREFOR, AND USE THEREOF” (SIRIO HEALTHCARE (ANHUI) CO., LTD., priority 2022, published 2026).
